The record followed here is US20260138969A1 (Korea Research Institute of Chemical Technology, priority 2023, published 2026).

For series [1], the system named is MPTP-induced PD mouse model. Nature of the series: MPTP-induced PD mouse model: TH staining of striatum and substantia nigra. The format is in vivo. The following applies: PO QD Day 1-7; Nilotinib 40 mg/kg, Example 3 2/10/50 mg/kg, Example 2 50 mg/kg; vs MPTP group G2. The procedure:
Mice at 7 weeks of age were divided into 7 groups as shown in Table 9 below to generate an acute MPTP model and proceed with drug administration: control group+vehicle (G1), MPTP+vehicle (G2), MPTP+Nilotinib 40 mg/kg (G3), MPTP+Example 3 2 mg/kg (G4), MPTP+Example 3 10 mg/kg (G5), MPTP+Example 3 50 mg/kg (G6), and MPTP+Example 2 50 mg/kg (G7). The test drug was administered orally (PO) at 10 ml/kg once daily (QD) from Day 1 to Day 7. The acute MPTP model will be performed at 2-hour intervals in all groups except the control group. […] was administered as intraperitoneal (IP) injection for 4 doses. The control group was given the same amount of 0.9% saline. The Pole test was performed on day 4 (after training on day 2 and day 3). On day 7, all mice were euthanized, and their brains were harvested.
Mice were euthanized with Zoletil administration for collection of tissue samples for staining and analysis of histological sections. Blood was collected from the heart of the mouse and then the residual blood was perfused with phosphate-buffered saline (PBS). For half of the mice (n=6/group), the brain was incised into the striatum, substantia nigra, and the rest of the brain, flash-frozen, and stored at −80° C. The remaining mice (n=6/group) had their brains isolated and immobilized in 4% paraformaldehyde for 24 hours at 4° C., followed by 30% sucrose in phosphate-buffered saline (PBS) containing 0.02% sodium azide and stored at 4° C. for 3 days. Immunohistochemical sections were performed on brain samples embedded with optimal cutting temperature (OCT) compounds. Samples were sectioned to a thickness of 20 μm using Leica CM1950 (Leica Microsystems, Germany) and stored at 4° C. in a preservation solution until staining with antibodies.
After staining the striatum and substantia nigra of the brain and mounting them on microscopic slides, the slides were washed with PBS containing 0.3% Triton X-100 and peroxidase block for 15 min at room temperature. The slides were washed three times with PBS containing 0.3% Triton X-100 and then blocked at RT (room temperature) for 1 hour in a solution containing PBS, 5% normal goat serum, and 0.3% Triton X-100. Tyrosine hydroxylase antibody was diluted at 1:1000 and incubated overnight at 4° C. The slides were washed with PBS solution and incubated for 1 h at RT with secondary antibody. The slides were washed with PBS solution and the sections were placed in the solution to proceed with the DAB (diaminobenzidine) reaction.
The DAB response was monitored under a microscope for 2 to 3 minutes, and the slides were washed with PBS to stop the DAB response, dehydrated, and mounted using xylene. An Olympus microscope (Olympus, SZ61, BX51) was used to visualize TH stained images. The optical density (OD) value of positive TH staining was measured in the striatum and substantia nigra and analyzed using Image J software.

In series [2] the test system is Reserpine-induced fibromyalgia rat model. Nature of the series: Reserpine-induced fibromyalgia rat model: pain (von Frey test). The series is classed as in vivo. The following applies: gabapentin 50 mg/kg IP QD; Example 2 3, 10, 30 mg/kg PO QD; days 1, 2, 4, 6. As for the experimental part:
Reserpine-induced fibromyalgia model generation and drug administration were carried out on 6-week-old male SD rats divided into 6 groups as shown in Table 15 below: control group (G1), reserpine+delivery (G2), reserpine+gabapentin 50 mg/kg (G3), reserpine+Example 2 3 mg/kg (G4), 10 mg/kg (G5), and 30 mg/kg (G6). To create a rat fibromyalgia model, reserpine (Sigma-aldrich, 1 mg/kg) dissolved in 0.5% acetic acid was administered subcutaneously once for 3 days from 3 days before the start of the experiment. Beginning on Day 1, the once-daily (QD) delivery body, gabapentin, and embodiment 2 were administered intraperitoneally (IP) or orally (PO) 2 hours before the experiment was performed.
The right hind foot tactile response test (von Frey test) was performed 5 times (before the fibromyalgia model, and on the 1st, 2nd, 4th and 6th days after the model was generated). Before all behavioral tests, rats were accustomed to the environment for 30 minutes, and all experimenters performing behavioral tests were made blind to drug administration information. Before model generation, baseline measurements were performed by performing the von Frey test on all rats. The rat was placed on a wired mesh and placed in a transparent plastic box (20×20×14 cm), and the foot withdrawal threshold was measured by applying a von Frey filament (ascending weight: 0.4, 0.6, 1.4, 2, 4, 6, 8, and 15 g, North Coast) to the middle of the right hind foot to assess foot allodynia.

The test system of series [3] is SH-SY5Y cells. Nature of the series: Cytoprotective effects in MPP+-induced human neurons (CCK-8). The series is classed as cell-based. The following applies: MPP+ 5 mM induced cytotoxicity, cell viability by CCK-8. As for the experimental part: SH-SY5Y cells were purchased from ATCC and cultured at 37° C. and 5% CO2 in RPMI medium containing 10% FBS and 1% penicillin and streptomycin. MPP+ was purchased from Sigma Aldrich and treated with 5 mM to induce cytotoxicity.

Series [4] concerns CDAHFD-induced non-alcoholic steatohepatitis mouse model. In words: CDAHFD-induced non-alcoholic steatohepatitis mouse model: liver fibrosis (Picrosirius red). The series is classed as in vivo. The following applies: Selonsertib 30 mg/kg, Example 3 10 and 30 mg/kg, Example 2 10 and 30 mg/kg PO QD; CDAHFD diet 4 and 8 weeks. The procedure: Creation of CDAHFD-induced NASH model and drug administration were carried out by dividing C57BL/6 male mice at 3 weeks of age into 7 groups as shown in Table 16 below. The control group (G1) was fed standard feed and water. Groups G2 to G7 were fed the CDAHFD (Research Diet Inc, #A06071302) diet for 4 and 8 weeks.
Picrosirius red staining was used for histological visualization of collagen fibers. Histopathology analysis evaluated the efficacy of improving liver fibrosis.
For mice in each group, three sections of the liver fixed with 4% PFA (paraformaldehyde) were prepared with paraffin blocks. Paraffin blocks were sectioned to a thickness of 5 μm (Histocore AUTOCUT R, Leica Microsystems, Germany) and the sections were mounted on silane-coated slides (MUTO, JPN) and stored until staining.
Xylene was used to remove paraffin from the slides, and the slides were moisturized and washed. The slides were stained with a solution of Picrosirius red (ab150681, Abcam, UK) and washed off with a solution of acetic acid. The slides were fitted after dehydration and cleaning using alcohol and xylene. For each section, two images of different areas were taken using a microscope (Axioscan7, ZEISS, Germany). The fibrotic area was measured using image J software compared to the total area. FIGS. 23a and 23b are graphs and images of Picrosirius red stained area ratios in the liver of a CDAHFD-induced mouse model of nonalcoholic steatohepatitis.

Series [5] deals with PC12 cells. Nature of the series: Neuronal protective efficacy against MPP+ (MTT). The format is cell-based. Conditions: Rattus norvegicus, PC-12, MPP 2 mM, Control = 100, read-out: cell viability (AVE). The procedure:
(§1) The neuronal toxicity substances 6-OHDA (6-hydroxydopamine hydrobromide) and MPP+ (1-methyl-4-phenylpyridinium) were purchased from Sigma-Aldrich (Saint Louis, MO, USA) and made into 100 mM DMSO stock. PC12 cells were seeded on 96-well plates with 4 pieces of 1×10 per well and incubated for one day. The cells were pretreated with each concentration of embodied compound for 1 h. Subsequently, 40 μM 6-OHDA and 2 mM MPP^+ were added and incubated for 24 hours, respectively. Subsequently, cell viability was measured using MTT (Invitrogen, MA, USA).

The nature of series [6]: Distribution in the mouse brain (plasma and brain AUC). The series is classed as in vivo. As for the experimental part:
The blood-brain barrier permeability in ICR mice was confirmed by oral administration of 10 mg/kg of test material. Male […] mice were fasted for 15 h prior to administration. The test material was administered at a dose of 10 mg/kg and a volume of 5 mL/kg, and the solvent composition was N-Methyl-2-pyrrolidone (NMP), Polyethylene glycol 400 (PEG 400), and distilled water (D.W) at a volume ratio of 10:40:50(%), respectively. After administration, blood and brain tissue samples were taken by sacrificing mice with carbon dioxide inhalation at each time point corresponding to 1, 4, and 8 hours. Whole blood was collected from the abdominal vena cava, and brain samples were collected after systemic perfusion with saline to remove as much blood as possible.
The distribution ratio in mouse plasma and brain was calculated by calculating the AUC after concentration quantification in each tissue.

Series [7] deals with PC12 cells. In words: Neuronal protective efficacy against 6-OHDA (MTT). The following applies: Rattus norvegicus, PC-12, 6-OHDA 40 μM, Control = 100, read-out: cell viability (AVE). The series is classed as cell-based. As for the experimental part: as §1
Series [8] concerns the target T1, recombinant human ASK1 protein (Homo sapiens, UniProt Q99683).
T1 sequence (Q99683 1-1374): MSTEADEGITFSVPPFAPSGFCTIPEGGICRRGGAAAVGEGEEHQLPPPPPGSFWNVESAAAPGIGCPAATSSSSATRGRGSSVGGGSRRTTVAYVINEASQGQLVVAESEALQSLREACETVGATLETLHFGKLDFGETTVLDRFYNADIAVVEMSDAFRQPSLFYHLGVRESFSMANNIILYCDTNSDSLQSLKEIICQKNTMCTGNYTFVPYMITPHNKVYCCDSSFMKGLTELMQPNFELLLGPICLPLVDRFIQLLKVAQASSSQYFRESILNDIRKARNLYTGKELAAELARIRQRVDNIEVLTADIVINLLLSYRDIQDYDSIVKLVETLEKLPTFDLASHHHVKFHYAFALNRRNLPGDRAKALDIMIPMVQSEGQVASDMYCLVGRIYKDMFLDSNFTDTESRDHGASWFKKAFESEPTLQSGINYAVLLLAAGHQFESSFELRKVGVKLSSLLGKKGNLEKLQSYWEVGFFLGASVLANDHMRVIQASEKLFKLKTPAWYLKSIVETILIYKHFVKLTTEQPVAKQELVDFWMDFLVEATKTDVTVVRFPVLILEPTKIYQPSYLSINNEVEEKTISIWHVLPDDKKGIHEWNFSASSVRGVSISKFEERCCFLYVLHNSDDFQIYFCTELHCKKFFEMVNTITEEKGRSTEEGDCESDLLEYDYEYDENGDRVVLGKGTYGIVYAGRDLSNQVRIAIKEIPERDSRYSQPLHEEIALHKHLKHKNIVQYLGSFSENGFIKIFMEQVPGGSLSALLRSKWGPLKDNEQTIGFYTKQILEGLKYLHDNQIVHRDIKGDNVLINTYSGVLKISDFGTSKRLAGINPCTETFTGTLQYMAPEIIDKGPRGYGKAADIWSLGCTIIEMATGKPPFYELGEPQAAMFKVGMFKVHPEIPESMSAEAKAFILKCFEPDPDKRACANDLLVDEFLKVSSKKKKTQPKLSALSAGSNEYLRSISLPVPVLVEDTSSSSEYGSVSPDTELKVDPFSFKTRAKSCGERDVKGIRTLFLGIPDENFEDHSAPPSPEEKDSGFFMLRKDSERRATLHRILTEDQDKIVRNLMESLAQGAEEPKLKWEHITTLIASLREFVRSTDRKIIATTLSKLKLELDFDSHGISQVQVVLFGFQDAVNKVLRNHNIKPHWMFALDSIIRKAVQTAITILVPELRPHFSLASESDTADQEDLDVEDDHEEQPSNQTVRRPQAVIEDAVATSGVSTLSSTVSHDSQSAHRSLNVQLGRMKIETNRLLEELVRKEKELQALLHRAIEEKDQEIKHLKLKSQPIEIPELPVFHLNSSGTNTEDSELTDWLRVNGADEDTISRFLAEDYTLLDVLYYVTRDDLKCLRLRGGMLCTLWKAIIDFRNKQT
In words: Evaluation of ASK1 inhibition activity ([gamma-33P]-ATP, scintillation counting). The following applies: 0.5 uM; activity of group without compound set at 100%; read-out: Remaining kinase activity (%) at 0.5 uM. The format is biochemical. The procedure:
The recombinant human ASK1 protein was initiated by adding a mixture of Mg/ATP to the reaction solution (8 mM MOPS PH 7.0, 0.2 mM EDTA, 0.33 mg/mL myelin basic protein, 10 mM Mg Acetate and [gamma-33P]-ATP), and the reaction was terminated by adding 0.5% phosphoric acid after 40 min at room temperature.

Where [9] appears, read: oral 10 mg/kg, samples at 1, 4, 8 hours.

Turning to `Cc1cn(-c2cc(NC(=O)c3ccc(C)c(Nc4nccc(-c5cccnc5)n4)c3)cc(C(F)(F)F)c2)cn1` [Nilotinib, reference compound], the “TH levels in striatum” value in series [1] is recorded as “significantly higher than those in G2”.

Consider `NCC1(CC(=O)O)CCCCC1` [Gabapentin, reference compound], for which the “sensitivity (foot withdrawal threshold, von Frey test)” value in series [2] was “gradually improved over time”.

Broadly, the EC50 is the midpoint of the concentration-response curve. Read a high EC50 as weaker potency. By viability is commonly meant the share of living cells, or the viability signal relative to a control. For orientation: Kp means tissue or fluid exposure divided by exposure in the circulation. In the case of `Cc1cc(F)c(C(=O)Nc2cccc(-c3nncn3C(C)C)n2)cc1-n1cnc(C2CC2)c1` [Comparative Example 1, Selonsertib, reference compound], the EC50 in series [3] was 89 nM. The “Picrosirius red staining area in the liver” value in series [4] is “significantly reduced”. The viability at 0.1 µM in series [5] (compound 0.1 μM) turned out to be 83.6%; in series [7] (compound 0.1 μM), 87.9%. Besides, the viability at 0.3 µM is 81.3% in series [5] (compound 0.3 μM) and 89.2% in series [7] (compound 0.3 μM). The viability at 1 µM came out at 81.3% in series [5] (compound 1 μM) and 84.1% in series [7] (compound 1 μM). For the same compound, the Kp in series [6] (male, brain/plasma, po, 10 mg/kg) was 0.004. For the same compound, the Aukinf brain in series [6] (setting [9]) is recorded as 0.26 ± 0.03 ug*h · g. This compound also returned an Aukinf plasma in series [6] (setting [9]) of 69.9 ± 3.48 µg·mL·h.

As a reminder, the remaining activity is the activity still measured, relative to the control. Take `O=C(Nc1cccc(-n2nnc3c2CCCC3)n1)c1cc(-n2cnc(C3CC3)c2)ccc1OC(F)F` [Example 27]: in series [8], the remaining activity at 0.5 µM was determined as 4%.

In the case of `CCOc1ccc(-n2cnc(C3CC3)c2)cc1C(=O)Nc1cccc(-n2nnc3c2CCCC3)n1` [Example 17, 5-(4-cyclopropyl-1H-imidazol-1-yl)-2-ethoxy-N-(6-(4,5,6,7-tetrahydro-1H-benzo[d][1,2,3]triazol-1-yl)pyridin-2-yl)benzamide], the remaining activity at 0.5 µM in series [8] is 2%.
